Data published in patent publication US20210147498A1, “USE OF GRAM-NEGATIVE LYSIN-ANTIMICROBIAL PEPTIDE (AMP) POLYPEPTIDE CONSTRUCTS IN PULMONARY SURFACTANT AND BIOFILMS” (priority 2018, published 2021).
In brackets after ≈: the same amount, converted by molar mass. Read-outs that look alike come from different tables or passages of the source.

Legend:
P. aeruginosa = assay: MIC by modified CLSI broth microdilution in CAA media, CAA with human serum or with Survanta; format: cell-based; settings: Pseudomonas aeruginosa
Text: 2015. […] Clinical and Laboratory Standards Institute, Wayne, Pa.

[1] = system: carbapenem-resistant P. aeruginosa strains; assay: microbe, parasite or virus in culture; format: cell-based, Pseudomonas aeruginosa; settings: for MIC: Pseudomonas aeruginosa; for MIC Combination / MIC Alone: vs. WC-452
Protocol: Such resensitization may be determined by combining the present lysins or lysin-AMP polypeptide constructs with an antibiotic in a checkerboard assay as described herein. Antibiotic-resistant bacteria, such as carbapenem-resistant P. aeruginosa, are added to the lysin or lysin-AMP polypeptide construct combination. […] See Clinical and Laboratory Standards Institute (CLSI), CLSI. […] M100 Performance Standards for Antimicrobial Susceptibility Testing; 29th Edition. Clinical and Laboratory Standards Institute, Wayne, Pa., which is herein incorporated by reference in its entirety.
Up to seven carbapenem-resistant isolates were assessed. […] See Clinical and Laboratory Standards Institute (CLSI), CLSI. […] M100 Performance Standards for Antimicrobial Susceptibility Testing; 29th Edition. Clinical and Laboratory Standards Institute, Wayne, Pa.

[2] = system: P. aeruginosa (strain WC-452); assay: 21-day serial passage resistance assay; format: cell-based, Pseudomonas aeruginosa; settings: CAA broth, over 18 days of serial passage
Protocol: The well with the highest concentration of GN lysin in which bacterial growth was seen was then used as the inoculum for the next day's passage, and the process was repeated over a 21 day period. The MIC at each daily time-point was recorded, and resistance was measured as a step-wise increase in MIC.

How did the MIC (P. aeruginosa; ATCC17646, read-out: Meropenem MIC (μg/mL), strain CFS 1109 (ATCC 17646)) turn out when C[C@@H](O)[C@H]1C(=O)N2C(C(=O)O)=C(S[C@@H]3CN[C@H](C(=O)N(C)C)C3)[C@H](C)[C@H]12 [Meropenem, meropenem] was run?
Its MIC is 0.5 µg/mL (≈ 1.3 µM).

What about the MIC (P. aeruginosa; ATCC27853, read-out: Meropenem MIC (μg/mL), strain CFS 1766 (ATCC 27853)) of the same compound?
Its MIC is 1 µg/mL (≈ 2.61 µM).

And the MIC (P. aeruginosa; PA1, read-out: Meropenem MIC (μg/mL), strain CFS 1539 (PA1))?
The MIC was 16 µg/mL (≈ 41.7 µM).

What about the MIC (P. aeruginosa; read-out: Meropenem MIC (μg/mL), […]) of the same compound?
Its MIC is over 32 µg/mL.

What about the MIC (P. aeruginosa; read-out: Meropenem MIC (μg/mL), strain CFS 1541 (PA3)) of the same compound?
Its MIC is 8 µg/mL (≈ 20.9 µM).

What about the MIC (P. aeruginosa; read-out: Meropenem MIC (μg/mL), strain CFS 1596 (PA26)) of the same compound?
The MIC was 0.5 µg/mL (≈ 1.3 µM).

And the MIC (P. aeruginosa; read-out: Meropenem MIC (μg/mL), strain CFS 1597 (PA27))?
Its MIC is 1 µg/mL (≈ 2.61 µM).

And the MIC (P. aeruginosa; read-out: Meropenem MIC (μg/mL), strain CFS 1669 (PA41))?
Its MIC is under 0.25 µg/mL.

What about the MIC (P. aeruginosa; read-out: Meropenem MIC (μg/mL), strain CFS 1674 (PA46)) of the same compound?
The MIC was 4 µg/mL (≈ 10.4 µM).

What about the MIC (P. aeruginosa; read-out: Meropenem MIC (μg/mL), strain CFS 1675 (PA47)) of the same compound?
Its MIC is 4 µg/mL (≈ 10.4 µM).

And the MIC ([1]; GN121, read-out: MIC (μg/mL) Alone, isolate PA19, checkerboard Meropenem + GN121)?
Its MIC is 32 µg/mL.

And the MIC ([1]; GN121, read-out: MIC (μg/mL) Alone, isolate PA20, checkerboard Meropenem + GN121)?
The MIC was 16 µg/mL.

And the MIC ([1]; GN121, read-out: MIC (μg/mL) Alone, isolate PA21, checkerboard Meropenem + GN121)?
The MIC was 32 µg/mL.

What about the MIC ([1]; GN121, read-out: MIC (μg/mL) Alone, isolate PA22, checkerboard Meropenem + GN121) of the same compound?
The MIC was 16 µg/mL.

What about the MIC ([1]; GN121, read-out: MIC (μg/mL) Alone, isolate PA23, checkerboard Meropenem + GN121) of the same compound?
Its MIC is 16 µg/mL.

What about the MIC ([1]; GN121, read-out: MIC (μg/mL) Alone, isolate PA24, checkerboard Meropenem + GN121) of the same compound?
Its MIC is 32 µg/mL.

What about the MIC ([1]; GN121, read-out: MIC (μg/mL) Alone, isolate WC-452, checkerboard Meropenem + GN121) of the same compound?
Its MIC is 16 µg/mL.

What about the MIC ([1]; GN123, read-out: MIC (μg/mL) Alone, isolate PA19, checkerboard MEROPENEM + GN123) of the same compound?
The MIC was 32 µg/mL.

And the MIC ([1]; GN123, read-out: MIC (μg/mL) Alone, isolate PA20, checkerboard MEROPENEM + GN123)?
The MIC was 16 µg/mL.

And the MIC ([1]; GN123, read-out: MIC (μg/mL) Alone, isolate PA21, checkerboard MEROPENEM + GN123)?
The MIC was 32 µg/mL.

What about the MIC ([1]; GN123, read-out: MIC (μg/mL) Alone, isolate PA22, checkerboard MEROPENEM + GN123) of the same compound?
The MIC was 16 µg/mL.

And the MIC ([1]; GN123, read-out: MIC (μg/mL) Alone, isolate PA23, checkerboard MEROPENEM + GN123)?
The MIC was 16 µg/mL.

What about the MIC ([1]; GN123, read-out: MIC (μg/mL) Alone, isolate PA24, checkerboard MEROPENEM + GN123) of the same compound?
The MIC was 32 µg/mL.

And the MIC ([1]; GN123, read-out: MIC (μg/mL) Alone, isolate WC-452, checkerboard MEROPENEM + GN123)?
The MIC was 16 µg/mL.

What about the “susceptibility category of the isolate, carbapenem Alone” value ([1]; isolate PA19) of the same compound?
Its value is “(R) ((R) = resistant)”.

And the “MIC (μg/mL) Combination” value ([1]; isolate PA19, MEROPENEM combined with GN123)?
Its value is 0.5 µg/mL.

What about the “MIC (μg/mL) Combination” value ([1]; isolate PA19, Meropenem combined with GN121) of the same compound?
The value was 1 µg/mL.

What about the “susceptibility category of the isolate, carbapenem in Combination” value (from here on “susceptibility category … in Combination”) ([1]; isolate PA19, combined with GN123) of the same compound?
Its value is “(S) ((S) = sensitive)”.

What about the “susceptibility category of the isolate, carbapenem Alone” value ([1]; isolate PA20) of the same compound?
The value was “(R) ((R) = resistant)”.

And the “MIC (μg/mL) Combination” value ([1]; isolate PA20, MEROPENEM combined with GN123)?
Its value is 0.5 µg/mL.

And the “MIC (μg/mL) Combination” value ([1]; isolate PA20, Meropenem combined with GN121)?
The value was 1 µg/mL.

And the “susceptibility category … in Combination” value ([1]; isolate PA20, combined with GN123)?
Its value is “(S) ((S) = sensitive)”.

And the “susceptibility category of the isolate, carbapenem Alone” value ([1]; isolate PA21)?
The value was “(R) ((R) = resistant)”.

And the “MIC (μg/mL) Combination” value ([1]; isolate PA21, MEROPENEM combined with GN123)?
The value was 1 µg/mL.

And the “MIC (μg/mL) Combination” value ([1]; isolate PA21, Meropenem combined with GN121)?
Its value is 2 µg/mL.

And the “susceptibility category … in Combination” value ([1]; isolate PA21, combined with GN123)?
Its value is “(S) ((S) = sensitive)”.

And the “susceptibility category of the isolate, carbapenem Alone” value ([1]; isolate PA22)?
The value was “(R) ((R) = resistant)”.

What about the “MIC (μg/mL) Combination” value ([1]; isolate PA22, MEROPENEM combined with GN123) of the same compound?
Its value is 1 µg/mL.

What about the “MIC (μg/mL) Combination” value ([1]; isolate PA22, Meropenem combined with GN121) of the same compound?
Its value is 1 µg/mL.

What about the “susceptibility category … in Combination” value ([1]; isolate PA22, combined with GN123) of the same compound?
Its value is “(S) ((S) = sensitive)”.

And the “susceptibility category of the isolate, carbapenem Alone” value ([1]; isolate PA23)?
The value was “(R) ((R) = resistant)”.

What about the “MIC (μg/mL) Combination” value ([1]; isolate PA23, MEROPENEM combined with GN123) of the same compound?
Its value is 0.5 µg/mL.

And the “MIC (μg/mL) Combination” value ([1]; isolate PA23, Meropenem combined with GN121)?
The value was 2 µg/mL.

What about the “susceptibility category … in Combination” value ([1]; isolate PA23, combined with GN123) of the same compound?
The value was “(S) ((S) = sensitive)”.

And the “susceptibility category of the isolate, carbapenem Alone” value ([1]; isolate PA24)?
The value was “(R) ((R) = resistant)”.

What about the “MIC (μg/mL) Combination” value ([1]; isolate PA24, MEROPENEM combined with GN123) of the same compound?
Its value is 2 µg/mL.

What about the “MIC (μg/mL) Combination” value ([1]; isolate PA24, Meropenem combined with GN121) of the same compound?
Its value is 1 µg/mL.

What about the “susceptibility category … in Combination” value ([1]; isolate PA24, combined with GN123) of the same compound?
Its value is “(S) ((S) = sensitive)”.

And the “susceptibility category of the isolate, carbapenem Alone” value ([1]; isolate WC-452)?
The value was “(R) ((R) = resistant)”.

What about the “MIC (μg/mL) Combination” value ([1]; isolate WC-452, MEROPENEM combined with GN123) of the same compound?
The value was 1 µg/mL.

And the “MIC (μg/mL) Combination” value ([1]; isolate WC-452, Meropenem combined with GN121)?
The value was 1 µg/mL.

And the “susceptibility category … in Combination” value ([1]; isolate WC-452, combined with GN123)?
The value was “(S) ((S) = sensitive)”.

And the “susceptibility category … in Combination” value ([1]; isolate WC-452, combined with GN351)?
The value was “(S) ((S) = sensitive)”.

And the “susceptibility category … in Combination” value ([1]; isolate WC-452, combined with GN370)?
The value was “(S) ((S) = sensitive)”.

What about the “susceptibility category … in Combination” value ([1]; isolate WC-452, combined with GN428) of the same compound?
Its value is “(S) ((S) = sensitive)”.

What about the MIC Combination ([1]; MEM combined with GN351) of the same compound?
Its MIC Combination is 1 µg/mL.

What about the MIC Combination ([1]; MEM combined with GN370) of the same compound?
The MIC Combination was 0.5 µg/mL.

What about the MIC Combination ([1]; MEM combined with GN428) of the same compound?
The MIC Combination was 1 µg/mL.

What about the MIC Alone ([1]; checkerboard MEM + GN351) of the same compound?
The MIC Alone was 16 µg/mL.

What about the MIC Alone ([1]; checkerboard MEM + GN428) of the same compound?
The MIC Alone was 16 µg/mL.

For O=C(O)c1cn(C2CC2)c2cc(N3CCNCC3)c(F)cc2c1=O [Ciprofloxacin], which “increase of MIC during serial passage” value [2] is on record?
The value was 16 fold.
